These results are taken from PMC8713996, “An anti-tuberculosis compound screen using a zebrafish infection model identifies an aspartyl-tRNA synthetase inhibitor” (Disease Models & Mechanisms, 2021).

Some results are limits rather than exact numbers.

Experiment [1] concerns Mtb-R-TBA161-C (aspS F526L). It counts as cell-based, Mycobacterium tuberculosis.
Experiment [2] deals with Mtb carrying pMS2-aspSMmar or pMS2-aspSMmarR168G. It counts as cell-based, Mycobacterium tuberculosis.

`O=c1c2cc(Cl)cc(Cl)c2oc2nc3n(c(=O)c12)CCCS3` [TBA161-C, 9,11-dichloro-3,4-dihydro-chromeno[2′,3′:4,5]pyrimido[2,1-b][1,3]thiazine-6,7-dione]: in experiment [1], the “MIC90, TBA161-C-resistant Mtb strains” value is “exceeding 20 µM” and the “MIC90 of resistant Mtb strains compared to the parental strain” value is “more than tenfold higher”. In addition, in experiment [2], the “Increase of MIC90, Mtb overexpressing wild-type aspS vs wild-type strain” value is recorded as “fivefold” and the “MIC90, Mtb overexpressing mutated aspS (aspSMmarR168G)” value is on record as above 80 µM.
